Source: patent US7989449B2, “4,5-dihydro-oxazol-2-yl amine derivatives” (Hoffman-La Roche Inc., priority 2008, dated 2011)
Counter-ions that a name gives are not always drawn.

Target: T1, 6his-tagged full length BACE 1 from SF9 cells (Homo sapiens, UniProt P56817)
T1 construct: 6his-tagged full length BACE 1 from SF9 cells; made in house; host or cells: Sf9 insect cells
Assay: BACE1 MR121 protease assay
Type: biochemical
Details: 30 nM 6his-BACE-1, 300 nM substrate peptide WSEVNLDAEFRC-MR121, Na-acetate pH 4.0, fluorescence
Experimental: Assay plate: 384 well microtiter plate, Corning clear, flat bottom, non binding surface
Assaybuffer: 100 mM Na-acetate pH 4.0, 20 mM EDTA, 0.05% BSA
BACE-1: 6his-tagged full length BACE 1 from SF9 cells
Substrate peptide: WSEVNLDAEFRC-MR121
BACE1 MR121 protease assay
39 μl of a 38 nM 6his-BACE-1 solution in assay buffer (final conc. in the assay: 30 nM) were pipetted into the assay plate. 1 μl of a concentration of a potential inhibitor in dimethylsulfoxide was added to the enzyme and incubated for 10 min. Finally, 10 μl of a 1.5 μM solution of the substrate in assay buffer (final conc. in the assay: 300 nM) was added to start the enzymatic reaction. After strong mixing for 2 min the enzymatic reaction was followed by measuring the fluorescence intensity every two minutes for 15 min on a suitable fluorescence reader. […] The slope was calculated from the linear part of the kinetic as a measure of the activity of BACE-1. A range of concentrations of the potential inhibitor was used to generate data for calculating the concentration of inhibitor resulting in 50% of the effect (e.g. IC50, the concentration of the compound inhibiting the BACE-1 activity by 50%).

T1 sequence (P56817 46-501): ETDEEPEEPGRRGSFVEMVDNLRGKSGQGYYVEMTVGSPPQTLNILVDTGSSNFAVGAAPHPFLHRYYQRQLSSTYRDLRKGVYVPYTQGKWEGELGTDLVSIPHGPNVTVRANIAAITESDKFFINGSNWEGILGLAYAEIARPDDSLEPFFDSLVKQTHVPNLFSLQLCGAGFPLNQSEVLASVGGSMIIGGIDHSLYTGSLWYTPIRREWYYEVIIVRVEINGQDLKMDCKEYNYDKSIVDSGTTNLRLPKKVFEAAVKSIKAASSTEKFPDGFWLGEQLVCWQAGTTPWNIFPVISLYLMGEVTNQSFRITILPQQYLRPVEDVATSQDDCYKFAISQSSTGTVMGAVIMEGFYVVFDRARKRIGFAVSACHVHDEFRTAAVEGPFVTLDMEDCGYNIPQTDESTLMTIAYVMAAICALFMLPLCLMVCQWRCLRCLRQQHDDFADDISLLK

Structure (SMILES) | IC50 [nM]
COc1cncc(-c2cccc(C3(c4ccc(OC)c(C(F)(F)F)c4)COC(N)=N3)c2)c1 (racemic) [Example 150, formate] | 330
CCOc1cc(Nc2ccccc2)cc(C2(c3ccc(OC(F)F)c(C)c3)COC(N)=N2)c1 (racemic) [Example 192] | 660
CCOCc1cc(Nc2ccccc2)cc(C2(c3ccc(OC(F)F)c(C)c3)COC(N)=N2)c1 (racemic) [Example 193, (RS)-4-(4-Difluoromethoxy-3-methyl-phenyl)-4-(3-ethoxymethyl-5-phenylamino-phenyl)-4,5-dihydro-oxazol-2-ylamine] | 80
CCOCc1cc(Nc2cccc(OC)c2)cc(C2(c3ccc(OC(F)F)c(C)c3)COC(N)=N2)c1 (racemic) [Example 194, (RS)-4-(4-Difluoromethoxy-3-methyl-phenyl)-4-[3-ethoxymethyl-5-(3-methoxy-phenylamino)-phenyl]-4,5-dihydro-oxazol-2-ylamine] | 140
CCOCc1cc(Nc2ccccc2)cc(C2(c3ccc(OC)c(C)c3)COC(N)=N2)c1 (racemic) [Example 195, (RS)-4-(3-Ethoxymethyl-5-phenylamino-phenyl)-4-(4-methoxy-3-methyl-phenyl)-4,5-dihydro-oxazol-2-ylamine] | 960
COCCc1cc(Nc2ccccc2)cc(C2(c3ccc(OC)c(C)c3)COC(N)=N2)c1 (racemic) [Example 197, (RS)-4-[3-(2-Methoxy-ethyl)-5-phenylamino-phenyl]-4-(4-methoxy-3-methyl-phenyl)-4,5-dihydro-oxazol-2-ylamine] | 530
Cc1cc(OC(F)F)ccc1C1(c2cccc(-c3cncc(C#N)c3)c2)COC(N)=N1 (racemic) [Example 200, (RS)-5-{3-[2-Amino-4-(4-difluoromethoxy-2-methyl-phenyl)-4,5-dihydro-oxazol-4-yl]-phenyl}-nicotinonitrile formate] | 380
Cc1cc(OC(F)F)ccc1C1(c2cccc(-c3cncc(Cl)c3)c2)COC(N)=N1 (racemic) [Example 201, (RS)-4-[3-(5-Chloro-pyridin-3-yl)-phenyl]-4-(4-difluoromethoxy-2-methyl-phenyl)-4,5-dihydro-oxazol-2-ylamine formate] | 160
Cc1cc(C2(c3cccc(-c4cncc(Cl)n4)c3)COC(N)=N2)ccc1OC(F)F (racemic) [Example 202, (RS)-4-[3-(6-Chloro-pyrazin-2-yl)-phenyl]-4-(4-difluoromethoxy-3-methyl-phenyl)-4,5-dihydro-oxazol-2-ylamine formate] | 440
Cc1cc(C2(c3cccc(-c4cncc(C#N)c4)c3)COC(N)=N2)ccc1OC(F)F (racemic) [Example 203, (RS)-5-{3-[2-Amino-4-(4-difluoromethoxy-3-methyl-phenyl)-4,5-dihydro-oxazol-4-yl]-phenyl}-nicotinonitrile formate] | 110
Cc1cc(C2(c3cccc(-c4cnccn4)c3)COC(N)=N2)ccc1OC(F)F (racemic) [Example 204, (RS)-4-(4-Difluoromethoxy-3-methyl-phenyl)-4-(3-pyrazin-2-yl-phenyl)-4,5-dihydro-oxazol-2-ylamine formate] | 160
Cc1cc(C2(c3ccc(F)c(-c4cncc(Cl)c4)c3)COC(N)=N2)ccc1OC(F)F (racemic) [Example 205, (RS)-4-[3-(5-Chloro-pyridin-3-yl)-4-fluoro-phenyl]-4-(4-difluoromethoxy-3-methyl-phenyl)-4,5-dihydro-oxazol-2-ylamine formate] | 90
COc1ccc([C@@]2(c3cccc(-c4cccc(Cl)c4)c3)COC(N)=N2)cc1 [Example 39A, (R)-4-(3′-Chloro-biphenyl-3-yl)-4-(4-methoxy-phenyl)-4,5-dihydro-oxazol-2-ylamine] | 440
Cc1cc([C@]2(c3cccc(-c4cncc(Cl)c4)c3)COC(N)=N2)ccc1OC(F)F [Example 94A, (R)-4-[3-(5-Chloro-pyridin-3-yl)-phenyl]-4-(4-difluoromethoxy-3-methyl-phenyl)-4,5-dihydro-oxazol-2-ylamine] | 40
